Measured values reported in patent US20220380319A1 (Bial - R&D Investments, S.A., priority 2019, published 2022).
pIC50: −log10 of the molar value. ≈ marks a conversion by molar mass, not a printed value.

Experiments:
[1] = Compound solubility in water
acid ceramidase = molecular target: T1, acid ceramidase (Homo sapiens, UniProt Q13510); test: Acid ceramidase inhibition, biochemical fluorescent assay with cell lysates overexpressing acid ceramidase, substrate Rbm14-12; settings: substrate Rbm14-12 6.3 μM, pH 4.5
T1 construct: Cell lysates overexpressing acid ceramidase were used as the enzyme source; expressed in transfected cells
T1 sequence (Q13510 22-395): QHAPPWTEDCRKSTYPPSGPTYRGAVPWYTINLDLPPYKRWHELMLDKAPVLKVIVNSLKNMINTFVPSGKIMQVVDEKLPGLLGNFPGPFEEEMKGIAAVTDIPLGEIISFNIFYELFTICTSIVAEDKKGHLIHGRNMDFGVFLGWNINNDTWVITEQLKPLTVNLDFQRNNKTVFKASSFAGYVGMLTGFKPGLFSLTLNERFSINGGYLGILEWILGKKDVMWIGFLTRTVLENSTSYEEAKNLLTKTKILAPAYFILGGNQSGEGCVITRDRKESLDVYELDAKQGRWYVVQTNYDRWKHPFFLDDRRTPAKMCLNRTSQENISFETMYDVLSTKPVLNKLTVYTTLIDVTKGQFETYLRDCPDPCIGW
In short: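 IC50 derived by four-parameter fitting of fluorescence (ex360 nm, em446 nm) produced after 1 hr in methanol/NaIO4/glycine stop buffer, pH 10.6. Reaction: 6.3 μM Rbm14-12, 1 hr RT, following 1 hr RT compound preincubation with 10 μg overexpressing-cell lysate protein in pH 4.5 NaAC/NaCl buffer.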

solubility [1] | pIC50 (acid ceramidase) | Structure (SMILES)
26 µg/mL (≈ 66.4 µM) | > 6.70 | C[C@@H](CCNC(=O)n1cnc2c(N3CCN(C)CC3)cccc21)c1ccccc1 [Example 253a, (S)-4-(4-Methylpiperazin-1-yl)-N-(3-phenylbutyl)-1H-benzo[d]imidazole-1-carboxamide]
27 µg/mL (≈ 69 µM) | > 6.70 | C[C@H](CCNC(=O)n1cnc2c(N3CCN(C)CC3)cccc21)c1ccccc1 [Example 253b, (R)-4-(4-methylpiperazin-1-yl)-N-(3-phenylbutyl)-1H-benzo[d]imidazole-1-carboxamide]
20 µg/mL (≈ 48.8 µM) | > 6.70 | CN1CCN(c2cccc3c2ncn3C(=O)NCCCC2(C(F)(F)F)CC2)CC1 [Example 254, 4-(4-Methylpiperazin-1-yl)-N-(3-(1-(trifluoromethyl)cyclopropyl)propyl)-1H-benzo[d]imidazole-1-carboxamide]
35 µg/mL (≈ 94.8 µM) | 6.00 to 6.70 | CN1CCN(c2cccc3c2ncn3C(=O)NCCCC(F)(F)F)CC1 [Example 255, 4-(4-Methylpiperazin-1-yl)-N-(4,4,4-trifluorobutyl)-1H-benzo[d]imidazole-1-carboxamide]
24 µg/mL (≈ 61.3 µM) | 6.00 to 6.70 | CN1CCN(c2cccc3c2ncn3C(=O)NCC2CCC(F)(F)CC2)CC1 [Example 256, N-((4,4-Difluorocyclohexyl)methyl)-4-(4-methylpiperazin-1-yl)-1H-benzo[d]imidazole-1-carboxamide]
34 µg/mL (≈ 86.9 µM) | > 6.70 | CN1CCN(c2cccc3c2ncn3C(=O)NCCC2CCC(F)(F)C2)CC1 (centres unmarked) [Example 258, N-(2-(3,3-Difluorocyclopentyl)ethyl)-4-(4-methylpiperazin-1-yl)-1H-benzo[d]imidazole-1-carboxamide]
21 µg/mL (≈ 53.6 µM) | 6.00 to 6.70 | CN1CCN(c2cccc3c2ncn3C(=O)NCCC2CCCC2(F)F)CC1 (centres unmarked) [Example 259, N-(2-(2,2-Difluorocyclopentyl)ethyl)-4-(4-methylpiperazin-1-yl)-1H-benzo[d]imidazole-1-carboxamide]
31 µg/mL (≈ 79.2 µM) | 6.00 to 6.70 | CN1CCN(c2cccc3c2ncn3C(=O)NCCCC2CC(F)(F)C2)CC1 [Example 260, N-(3-(3,3-Difluorocyclobutyl)propyl)-4-(4-methylpiperazin-1-yl)-1H-benzo[d]imidazole-1-carboxamide]
16 µg/mL (≈ 47.1 µM) | > 6.70 | CC(C)C#CCNC(=O)n1cnc2c(N3CCN(C)CC3)cccc21 [Example 280, N-(4-Methylpent-2-ynyl)-4-(4-methylpiperazin-1-yl)-1H-benzo[d]imidazole-1-carboxamide]
28 µg/mL (≈ 83 µM) | > 6.70 | CN1CCN(c2cccc3c2ncn3C(=O)NCC#CC2CC2)CC1 [Example 283, N-(3-Cyclopropylprop-2-ynyl)-4-(4-methylpiperazin-1-yl)-1H-benzo[d]imidazole-1-carboxamide]
30 µg/mL (≈ 85.4 µM) | > 6.70 | CN1CCN(c2cccc3c2ncn3C(=O)NCC#CCC2CC2)CC1 [Example 284]
22 µg/mL (≈ 52.4 µM) | > 6.70 | CN1CCN(c2cccc3c2ncn3C(=O)NCC#CCC2(C(F)(F)F)CC2)CC1 [Example 285, 4-(4-Methylpiperazin-1-yl)-N-(4-(1-(trifluoromethyl)cyclopropyl)but-2-yn-1-yl)-1H-benzo[d]imidazole-1-carboxamide]

Second part, the molecule before the results:

Structure (SMILES) | solubility [1] | pIC50 (acid ceramidase)
CN1CCN(c2cccc3c2ncn3C(=O)NCCOc2ccccc2)CC1 [Example 257, 4-(4-Methylpiperazin-1-yl)-N-(2-phenoxyethyl)-1H-benzo[d]imidazole-1-carboxamide] | 19 µg/mL (≈ 50.1 µM) | > 6.70
CCN1CCC(c2cccc3c2ncn3C(=O)NCCCc2ccccc2)C1 (centres unmarked) [Example 261, 4-(1-Ethylpyrrolidin-3-yl)-N-(3-phenylpropyl)-1H-benzo[d]imidazole-1-carboxamide] | 26 µg/mL (≈ 69.1 µM) | > 6.70
O=C(NCCCc1ccccc1)n1cnc2c(CCCN3CCC3)cccc21 [Example 262, 4-(3-(Azetidin-1-yl)propyl)-N-(3-phenylpropyl)-1H-benzo[d]imidazole-1-carboxamide] | 21 µg/mL (≈ 55.8 µM) | > 6.70
CC1(N)CCN(c2cccc3c2ncn3C(=O)NCCCc2ccccc2)CC1 [Example 263, 4-(4-Amino-4-methylpiperidin-1-yl)-N-(3-phenylpropyl)-1H-benzo[d]imidazole-1-carboxamide] | 25 µg/mL (≈ 63.9 µM) | > 6.70
CN(C)C1CCN(c2cccc3c2ncn3C(=O)NCCCc2ccccc2)C1 (centres unmarked) [Example 264, 4-(3-(Dimethylamino)pyrrolidin-1-yl)-N-(3-phenylpropyl)-1H-benzo[d]imidazole-1-carboxamide] | 21 µg/mL (≈ 53.6 µM) | > 6.70
O=C(NCCCc1ccccc1)n1cnc2c(N3CC4CNCC4C3)cccc21 (centres unmarked) [Example 265, 4-(Hexahydropyrrolo[3,4-c]pyrrole-2(1H)-yl)-N-(3-phenylpropyl)-1H-benzo[d]imidazole-1-carboxamide] | 27 µg/mL (≈ 69.3 µM) | > 6.70
CN1CC2CN(c3cccc4c3ncn4C(=O)NCCCc3ccccc3)CC2C1 (centres unmarked) [Example 266, 4-(5-Methylhexahydropyrrolo[3,4-c]pyrrol-2(1H)-yl)-N-(3-phenylpropyl)-1H-benzo[d]imidazole-1-carboxamide] | 34 µg/mL (≈ 84.3 µM) | > 6.70
CN1CCC(c2cccc3c2ncn3C(=O)NCCCc2ccccc2)C1 (centres unmarked) [Example 267, 4-(1-Methylpyrrolidin-3-yl)-N-(3-phenylpropyl)-1H-benzo[d]imidazole-1-carboxamide] | 25 µg/mL (≈ 69 µM) | > 6.70
CNC1CCN(c2cccc3c2ncn3C(=O)NCCCc2ccccc2)C1 (centres unmarked) [Example 268, 4-(3-(Methylamino)pyrrolidin-1-yl)-N-(3-phenylpropyl)-1H-benzo[d]imidazole-1-carboxamide] | 17 µg/mL (≈ 45 µM) | > 6.70
CN1CCCN(c2cccc3c2ncn3C(=O)NCCCc2ccccc2)CC1 [Example 269, 4-(4-Methyl-1,4-diazepan-1-yl)-N-(3-phenylpropyl)-1H-benzo[a]imidazole-1-carboxamide] | 21 µg/mL (≈ 53.6 µM) | > 6.70
CN1CC(c2cccc3c2ncn3C(=O)NCCCc2ccccc2)C1 [Example 270, 4-(1-Methylazetidin-3-yl)-N-(3-phenylpropyl)-1H-benzo[d]imidazole-1-carboxamide] | 32 µg/mL (≈ 91.8 µM) | > 6.70
CN1CCC2CCN(c3cccc4c3ncn4C(=O)NCCCc3ccccc3)CC21 (centres unmarked) [Example 271, 4-(1-Methyloctahydro-6H-pyrrolo[2,3-c]pyridin-6-yl)-N-(3-phenylpropyl)-1H-benzo[d]imidazole-1-carboxamide] | 22 µg/mL (≈ 52.7 µM) | > 6.70
CN(C)CC1CN(c2cccc3c2ncn3C(=O)NCCCc2ccccc2)C1 [Example 272, 4-(3-((Dimethylamino)methyl)azetidin-1-yl)-N-(3-phenylpropyl)-1H-benzo[d]imidazole-1-carboxamide] | 21 µg/mL (≈ 53.6 µM) | > 6.70
O=C(NCCCc1ccccc1)n1cnc2c(N3CC(C(F)(F)F)C3)cccc21 [Example 273, N-(3-Phenylpropyl)-4-(3-(trifluoromethyl)azetidin-1-yl)-1H-benzo[d]imidazole-1-carboxamide] | 0.2 µg/mL (≈ 0.497 µM) | > 6.70
O=C1CCC2CN(c3cccc4c3ncn4C(=O)NCCCc3ccccc3)CCN12 (centres unmarked) [Example 275, 4-(6-Oxohexahydropyrrolo[1,2-a]pyrazin-2(1H)-yl)-N-(3-phenylpropyl)-1H-benzo[d]imidazole-1-carboxamide] | 15 µg/mL (≈ 35.9 µM) | > 6.70
CN1CCN(C2CN(c3cccc4c3ncn4C(=O)NCCCc3ccccc3)C2)CC1 [Example 276, 4-(3-(4-Methylpiperazin-1-yl)azetidin-1-yl)-N-(3-phenylpropyl)-1H-benzo[d]imidazole-1-carboxamide] | 28 µg/mL (≈ 64.7 µM) | > 6.70
CN1CCN(c2cccc3c2ncn3C(=O)NCCCc2ccccc2)CC1CF (centres unmarked) [Example 277, 4-(3-(Fluoromethyl)-4-methylpiperazin-1-yl)-N-(3-phenylpropyl)-1H-benzo[d]imidazole-1-carboxamide] | 18 µg/mL (≈ 44 µM) | > 6.70
N#CCCN1CCN(c2cccc3c2ncn3C(=O)NCCCc2ccccc2)CC1 [Example 278, 4-(4-(2-Cyanoethyl)piperazin-1-yl)-N-(3-phenylpropyl)-1H-benzo[d]imidazole-1-carboxamide] | 18 µg/mL (≈ 43.2 µM) | > 6.70
O=C(NCCCc1ccccc1)n1cnc2c(N3CCC3)cccc21 [Example 279, 4-(Azetidin-1-yl)-N-(3-phenylpropyl)-1H-benzo[d]-imidazole-1-carboxamide] | 1 µg/mL (≈ 2.99 µM) | > 6.70
CC#CCNC(=O)n1cnc2c(N3CCN(C)CC3)cccc21 [Example 281, N-(But-2-yn-1-yl)-4-(4-methylpiperazin-1-yl)-1H-benzo[d]imidazole-1-carboxamide] | 32 µg/mL (≈ 103 µM) | 6.00 to 6.70
CN1CCN(c2cccc3c2ncn3C(=O)NCC#Cc2ccccc2)CC1 [Example 282, 4(4-Methylpiperazin-1-yl)-N-(3-phenylprop-2-yn-1-yl)-1H-benzo[d]imidazole-1-carboxamide] | 21 µg/mL (≈ 56.2 µM) | > 6.70
O=C(NCCCc1ccccc1)n1cnc2c(N3CCN(C4COC4)CC3)cccc21 [Example 286, 4-(4-(Oxetan-3-yl)piperazin-1-yl)-N-(3-phenylpropyl)-1H-benzo[d]imidazole-1-carboxamide] | 24 µg/mL (≈ 57.2 µM) | > 6.70
